Data: publication PMC9928118, “Funneling modulatory peptide design with generative models: Discovery and characterization of disruptors of calcineurin protein-protein interactions” (PLOS Computational Biology, 2023)
Each block holds one sequence with its values, some of them ahead of it.

Tested on: GST-tagged Cn
Experiment: PEPperPRINT peptide microarray binding assay with GST-tagged Cn
Summary of the method: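 Qualitative binding: peptides printed on a PEPperPRINT microarray were incubated overnight at 4 °C with 1 mg/ml GST-tagged Cn, then detected with Alexa-Fluor 647 anti-GST antibody. Log fluorescence was baseline-corrected, averaged over duplicate spots, Z-normalized and averaged across five repeats.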

[1] = GST-tagged Cn, max over the spots on the chip (two locations)
[2] = GST-tagged Cn, mean over the spots on the chip (two locations)
[3] = GST-tagged Cn, max over the chip spots listed under Location on chip
[4] = GST-tagged Cn, mean over the chip spots listed under Location on chip
[5] = GST-tagged Cn, max over the chip locations
[6] = GST-tagged Cn, mean over the chip locations
[7] = max over the chip locations listed for the peptide (two spots)
[8] = mean over the chip locations listed for the peptide (two spots)
[9] = GST-tagged Cn, max over the spots named in Location on chip
[10] = GST-tagged Cn, mean over the spots named in Location on chip
[11] = max over the spots listed under Location on chip
[12] = mean over the spots listed under Location on chip

Chip Fluorescence (max) [1]: 1.275 | Chip Fluorescence (mean) [2]: 0.3801
Sequence: KVRTALYFTWNLTERG [Seqshuffled_9698]

Chip Fluorescence (max) [3]: 0.7857 | Chip Fluorescence (mean) [4]: -0.5033
Sequence: KVTTLKSVSPAIAAPE [Seqshuffled_1741]

Chip Fluorescence (max) [5]: -0.5301 | Chip Fluorescence (mean) [6]: -2.0266
Sequence: LAFALPAFSFAAMKSA [SeqRBM_4599]

Chip Fluorescence (max) [5]: 0.1795 | Chip Fluorescence (mean) [6]: -0.588
Sequence: LATQVPTFEITSPNSA [SeqNRG2_Pan_troglodytes]

Chip Fluorescence (max) [1]: 1.2052 | Chip Fluorescence (mean) [2]: 0.7765
Sequence: LCVTGRERIAEDWLRP [Seqrandom_9974]

Chip Fluorescence (max) [7]: 4.66 | Chip Fluorescence (mean) [8]: 1.641
Sequence: LCWFLDYRVVLPFFAY [Seqshuffled_7970]

Chip Fluorescence (max) [7]: 9.285 | Chip Fluorescence (mean) [8]: 1.035
Sequence: LDEAIPEIVISPPETP [SeqRBMlowT_4410]

Chip Fluorescence (max) [1]: 1.299 | Chip Fluorescence (mean) [2]: -0.4919
Sequence: LEAAPPDPDRKPPNII [Seqshuffled_9311]

Chip Fluorescence (max) [9]: 1.718 | Chip Fluorescence (mean) [10]: -0.1183
Sequence: LGRMSPQSTTQALPST [Seqshuffled_9332]

Chip Fluorescence (max) [1]: 1.254 | Chip Fluorescence (mean) [2]: 0.008632
Sequence: LHPTCDPFRCSTHQSH [Seqshuffled_9610]

Chip Fluorescence (max) [1]: 1.269 | Chip Fluorescence (mean) [2]: 0.6031
Sequence: LKDEFPDVRLHIISKL [SeqRCN1_Arthroderma_otae]

Chip Fluorescence (max) [1]: 1.029 | Chip Fluorescence (mean) [2]: 0.2404
Sequence: LKDEFPEVRLNIISNL [SeqRBMlowT_1004]

Chip Fluorescence (max) [11]: 2.696 | Chip Fluorescence (mean) [12]: 0.6595
Sequence: LKDEFPEVRLNIISSL [SeqRBMlowT_1023]

Chip Fluorescence (max) [3]: 0.7069 | Chip Fluorescence (mean) [4]: 0.04327
Sequence: LKDEFSDVRLNIISNL [SeqRBMlowT_1878]

Chip Fluorescence (max) [11]: 2.998 | Chip Fluorescence (mean) [12]: 0.7654
Sequence: LKDEIPEVRLNIISAL [SeqRBMlowT_1072]

Chip Fluorescence (max) [7]: 3.957 | Chip Fluorescence (mean) [8]: 2.453
Sequence: LKDEIPEVRLNIISNL [SeqRBMlowT_1003]

Chip Fluorescence (max) [9]: 1.476 | Chip Fluorescence (mean) [10]: 0.5558
Sequence: LKDEIPEVRLNIISSL [SeqRBMlowT_1013]

Chip Fluorescence (max) [1]: 1.167 | Chip Fluorescence (mean) [2]: 0.2257
Sequence: LKDESPEVRLNIISKL [SeqRBMlowT_3831]

Chip Fluorescence (max) [11]: 3.106 | Chip Fluorescence (mean) [12]: 1.095
Sequence: LKDESPEVRLNIISSL [SeqRBMlowT_1855]

Chip Fluorescence (max) [3]: 0.4089 | Chip Fluorescence (mean) [4]: -0.7319
Sequence: LKDEVPEVRLNIISNL [SeqRCN1_Ramazzottius_varieornatus]

Chip Fluorescence (max) [3]: 0.9435 | Chip Fluorescence (mean) [4]: -0.1625
Sequence: LKDEVPEVRLNIISSL [SeqRBMlowT_4107]

Chip Fluorescence (max) [11]: 2.925 | Chip Fluorescence (mean) [12]: 0.6756
Sequence: LKDQFPKVRLNIIDAP [SeqRBM_543]

Chip Fluorescence (max) [9]: 1.4154 | Chip Fluorescence (mean) [10]: 0.777
Sequence: LKKTYLRREMHGCYNH [Seqrandom_9958]

Chip Fluorescence (max) [7]: 4.37 | Chip Fluorescence (mean) [8]: 2.238
Sequence: LLDDVPDVVVHPPEED [SeqRBMlowT_144]

Chip Fluorescence (max) [5]: -0.781 | Chip Fluorescence (mean) [6]: -1.379
Sequence: LLLKIPSLNINDVEAS [SeqRBM_1919]

Chip Fluorescence (max) [11]: 3.353 | Chip Fluorescence (mean) [12]: 0.761
Sequence: LMVSPPEITISPAELH [SeqRBM_5585]

Chip Fluorescence (max) [3]: 0.5862 | Chip Fluorescence (mean) [4]: -1.046
Sequence: LNAIQEAQDKTDIRNK [Seqshuffled_9749]

Chip Fluorescence (max) [5]: 0.2778 | Chip Fluorescence (mean) [6]: -0.136
Sequence: LNLEIPEVRLNIISAL [SeqRBMlowT_8463]

Chip Fluorescence (max) [1]: 1.157 | Chip Fluorescence (mean) [2]: 0.3599
Sequence: LNLKIPEIDSSDMSAH [SeqFLNA_Erinaceus_europaeus]

Chip Fluorescence (max) [5]: 0.09786 | Chip Fluorescence (mean) [6]: -0.5761
Sequence: LNLKIPEVRLNIISAL [SeqRBMlowT_1835]

Chip Fluorescence (max) [9]: 1.375 | Chip Fluorescence (mean) [10]: 0.2818
Sequence: LNLKIPIVLLNIISAI [SeqRBM_9387]

Chip Fluorescence (max) [9]: 1.846 | Chip Fluorescence (mean) [10]: -0.3422
Sequence: LNLKIPTIAKADITAT [SeqRBM_4458]

Chip Fluorescence (max) [11]: 3.363 | Chip Fluorescence (mean) [12]: 0.477
Sequence: LNRIEIFVTFNFTRNS [Seqshuffled_5110]

Chip Fluorescence (max) [3]: 0.7337 | Chip Fluorescence (mean) [4]: -0.349
Sequence: LSARYPEIVVSVPEHN [SeqRBM_9361]

Chip Fluorescence (max) [5]: 0.09814 | Chip Fluorescence (mean) [6]: -0.3526
Sequence: LSDNRPNVRMEAPMVQ [SeqRBM_9917]

Chip Fluorescence (max) [1]: 1.124 | Chip Fluorescence (mean) [2]: -0.12
Sequence: LSLKIPEISIQDMTAQ [SeqFLNA_Macaca_mulatta]

Chip Fluorescence (max) [1]: 1.26 | Chip Fluorescence (mean) [2]: 0.2646
Sequence: LTDAAPEVVVSKPEHN [SeqRBMlowT_7696]

Chip Fluorescence (max) [7]: 15.2815 | Chip Fluorescence (mean) [8]: 4.411
Sequence: LTWTSLRYSVNDDKNT [Seqshuffled_9363]

Chip Fluorescence (max) [3]: 0.7935 | Chip Fluorescence (mean) [4]: -0.8344
Sequence: LTWTSNDMKLHLSGVS [Seqshuffled_9827]

Chip Fluorescence (max) [3]: 0.8809 | Chip Fluorescence (mean) [4]: -0.1421
Sequence: LVWDNGSYTGRTIKAP [Seqshuffled_9818]

Chip Fluorescence (max) [11]: 2.82 | Chip Fluorescence (mean) [12]: 1.158
Sequence: MAGPHPKIVITGPHEE [PKIVIT-containing synthetic peptide]

Chip Fluorescence (max) [9]: 1.659 | Chip Fluorescence (mean) [10]: -0.168
Sequence: MLDAIPEVVVSPPEEP [SeqRBM_4087]

Chip Fluorescence (max) [9]: 1.553 | Chip Fluorescence (mean) [10]: -0.6579
Sequence: MLSIRPSARLKIPQHR [SeqRBM_1889]

Chip Fluorescence (max) [9]: 1.743 | Chip Fluorescence (mean) [10]: -0.1357
Sequence: MRRERSNRAMFKVNQH [Seqrandom_9977]

Chip Fluorescence (max) [3]: 0.4752 | Chip Fluorescence (mean) [4]: -0.03556
Sequence: MTPAAPIVRLHIPSSV [SeqRBM_8521]

Chip Fluorescence (max) [9]: 1.453 | Chip Fluorescence (mean) [10]: -0.5656
Sequence: NAWKNPGQETHTTKKL [Seqshuffled_9929]

Chip Fluorescence (max) [7]: 4.823 | Chip Fluorescence (mean) [8]: 1.654
Sequence: NDHALPEITVTPAELP [SeqRBM_7856]

Chip Fluorescence (max) [7]: 3.477 | Chip Fluorescence (mean) [8]: 1.051
Sequence: NDHNTNDWSFELGQTV [Seqshuffled_9000]

Chip Fluorescence (max) [5]: -0.355 | Chip Fluorescence (mean) [6]: -1.487
Sequence: NFNPNPAVVLKIPQQR [SeqRBM_5953]

Chip Fluorescence (max) [3]: 0.9409 | Chip Fluorescence (mean) [4]: -0.6593
Sequence: NGPGTPSRQGQPAAPS [SeqRTS1_Penicillium_nalgiovense]

Chip Fluorescence (max) [3]: 0.749 | Chip Fluorescence (mean) [4]: -1.0469
Sequence: NGPGTPTRQGQPLAPS [SeqRBMlowT_7792]

Chip Fluorescence (max) [3]: 0.6682 | Chip Fluorescence (mean) [4]: -0.9835
Sequence: NGPSTPTKQGQPMAPS [SeqRBM_8324]

Chip Fluorescence (max) [11]: 2.929 | Chip Fluorescence (mean) [12]: 1.69
Sequence: NICTSLTLVETDPTVY [Seqshuffled_9501]

Chip Fluorescence (max) [7]: 4.705 | Chip Fluorescence (mean) [8]: 1.485
Sequence: NIEKMPELQACGHTSF [SeqRBM_2022]

Chip Fluorescence (max) [9]: 1.398 | Chip Fluorescence (mean) [10]: -0.3065
Sequence: NIIKTLTAVARYCQHF [Seqrandom_9968]

Chip Fluorescence (max) [11]: 2.778 | Chip Fluorescence (mean) [12]: 0.1403
Sequence: NKLKIPHQLSQPINDH [SeqRBM_2163]

Chip Fluorescence (max) [11]: 2.99 | Chip Fluorescence (mean) [12]: -0.7897
Sequence: NMATVPAVTMGEVART [SeqRBM_5293]

Chip Fluorescence (max) [11]: 2.665 | Chip Fluorescence (mean) [12]: 0.9097
Sequence: NMGTGVGIVITITEAV [SeqAKAP79_Meleagris_gallopavo]

Chip Fluorescence (max) [9]: 1.504 | Chip Fluorescence (mean) [10]: -0.4285
Sequence: NNSESPKIAITTTLGN [SeqRBM_1677]

Chip Fluorescence (max) [5]: -0.2717 | Chip Fluorescence (mean) [6]: -1.157
Sequence: NSSGAPQFQINVLMGE [SeqRBM_9653]

Chip Fluorescence (max) [9]: 1.598 | Chip Fluorescence (mean) [10]: 0.6708
Sequence: NVLRISSARPDNRGVY [SeqCEACAM5_Musca_domestica]

Chip Fluorescence (max) [3]: 0.7584 | Chip Fluorescence (mean) [4]: -1.743
Sequence: NVPKGIRFRRTYLAIP [Seqshuffled_5577]

Chip Fluorescence (max) [1]: 1.102 | Chip Fluorescence (mean) [2]: 0.1459
Sequence: NVSSSPRVTLKIPQHR [SeqRBM_7185]

Chip Fluorescence (max) [5]: 0.2051 | Chip Fluorescence (mean) [6]: -1.045
Sequence: NWPETPSIVEQPPSSS [SeqRBM_881]

Chip Fluorescence (max) [1]: 1.294 | Chip Fluorescence (mean) [2]: 0.4829
Sequence: PAFFCEGFTIQADSLD [Seqshuffled_9825]

Chip Fluorescence (max) [11]: 3.117 | Chip Fluorescence (mean) [12]: 1.082
Sequence: PAGAGVGIVITVTEAE [SeqRBMlowT_166]

Chip Fluorescence (max) [1]: 1.221 | Chip Fluorescence (mean) [2]: -0.03937
Sequence: PAGTGVGIVITVTEAE [SeqRBMlowT_157]

Chip Fluorescence (max) [9]: 1.48 | Chip Fluorescence (mean) [10]: 0.3949
Sequence: PALESPRIEITSCLGL [SeqNFATC1_Homo_sapiens]

Chip Fluorescence (max) [9]: 1.5159 | Chip Fluorescence (mean) [10]: -0.48
Sequence: PALESPRIEITSYLGM [SeqNFATC1_Canis_lupus]

Chip Fluorescence (max) [9]: 1.355 | Chip Fluorescence (mean) [10]: 0.6125
Sequence: PALYDNALGIESFTLS [SeqCRZ1_Penicillium_arizonense]

Chip Fluorescence (max) [1]: 1.28 | Chip Fluorescence (mean) [2]: 0.6681
Sequence: PDEAQPGIVVHVCELP [SeqRBMlowT_301]

Chip Fluorescence (max) [9]: 1.719 | Chip Fluorescence (mean) [10]: -0.09544
Sequence: PDESTPEITITPAELP [SeqRBMlowT_5714]

Chip Fluorescence (max) [3]: 0.8772 | Chip Fluorescence (mean) [4]: -0.6992
Sequence: PENKFQPFAIKLCVKG [Seqshuffled_5021]

Chip Fluorescence (max) [9]: 1.396 | Chip Fluorescence (mean) [10]: 0.78
Sequence: PFEKNDIQQIHLEEHP [Seqshuffled_9861]

Chip Fluorescence (max) [9]: 1.48 | Chip Fluorescence (mean) [10]: -0.4167
Sequence: PFLAEQYMVVEEMTVS [Seqshuffled_9732]

Chip Fluorescence (max) [1]: 1.167 | Chip Fluorescence (mean) [2]: 0.2882
Sequence: PGCATPRIAITPTENM [SeqRBM_2983]
